In PMC6832219, “Synthesis of Novel Baicalein Amino Acid Derivatives and Biological Evaluation as Neuroprotective Agents” (Molecules, 2019):
Like-named read-outs stand apart in the source and are kept apart here.

Experiments:
injured SH-SY5Y cells = assay: Protective effect against tert-butyl hydroperoxide-induced SH-SY5Y neurotoxicity cells (MTT assay); type: cell-based; conditions: for Proliferation Rate (%) / viability at 3.125 µM / viability at 6.25 µM / viability at 12.5 µM / viability at 25 µM / viability at 50 µM: injured SH-SY5Y cells; for EC50: tert-butyl hydroperoxide-induced SH-SY5Y neurotoxicity, read-out: EC50 for protecting injured SH-SY5Y cells; for viability at 3.125 µM / viability at 6.25 µM / viability at 12.5 µM / viability at 25 µM / viability at 50 µM: read-out: Proliferation Rate (%);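 for Proliferation Rate (%): 0% equals CoCl2-injured cells and 100% equals NGF-treated cells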
Experimental: The protective effects of baicalein derivatives in vitro was evaluated against tert-butyl, hydroperoxide-induced, SH-SY5Y neurotoxicity cells using an MTT assay. In addition, their toxicity evaluation was tested on normal H9C2 cells. The resulting proliferation rates (%) at different concentrations, as well as their 50% effective concentrations (EC50) for protecting damaged SH-SY5Y cells of the baicalein amino acid derivatives, are summarized in Table 2.
(§1) The SH-SY5Y ([…]) and H9C2 ([…]) cell lines were obtained from the Chinese Academy of Medical Sciences and Peking Union Medical College. All of the cell lines were grown in dulbecco’s modified eagle medium (DMEM) with 10% (v/v) fetal bovine serum (FBS) and 1% (v/v) penicillin/streptomycin (Thermo Technologies, New York, NY, USA), under a humidified atmosphere containing 5% CO2 at 37 °C. The baicalein derivatives were dissolved in DMSO (Sigma, St. Louis, MO, USA) and added at various concentrations to the cell culture.
(§2) The protective effect of these compounds was evaluated on SH-SY5Y and H9C2 cell lines via the MTT method. The cells growing in the logarithmic phase were cultured in 96-well plates at a density 3 × 10^3 cells/well and incubated for 24 h. Then each well was treated with the required concentrations (50 µM concentrations, 25 µM concentrations, 12.5µM concentrations, 6.25 µM concentrations, and 3.125 µM concentrations) of baicalein derivatives, and incubated 36 h at 37 °C with 5% CO2. After that, the cells were induced by H2O2 (final concentration, […]) for 12 h. Control-differentiated cells were injected with new growth media at equal amounts. Before […] MTT solution (5 mg/mL) was added to each well, the cell culture fluid was discarded, and […] fresh cell culture fluid was added. The plate was incubated for a further 4 h at 37 °C. The cell supernatant medium was removed carefully, without disturbing the attached cells, and formazan crystals were solubilized by adding 150 μL DMSO into each well. The absorbance was measured at 490 nm with a plate reader (BIORAD 550 spectrophotometer, Bio-rad Life Science Development Ltd., Beijing, China). H2O2 was dissolved in DMEM medium. Wells without drugs were used as blanks. The EC50 values were defined as the concentrations that causes the maximum effect of 50%; IC50 values were defined as the concentration of compound which gives 50% growth inhibition, and were calculated using the GraphPad Prism 5. The proliferation rates of damaged SH-SY5Y cells were calculated in the following formula (1): [OD490 (compound) − OD490 (CoCl2)]/[OD490 (NGF) − OD490 (CoCl2)] × 100%(1) The EC50 values were using the equation −pEC50 = log Cmax − log 2 × (ΣP − 0.75 + 0.25Pmax + 0.25Pmin)(2) where Cmax is the maximum concentration, ΣP is the sum of proliferation rates, Pmax is the maximum value of the proliferation rate, and Pmin is the minimum value of the proliferation rate. Cell viability was expressed as a percentage of the control.

H9C2 cells [1] = assay: Toxicity on normal H9C2 cells (MTT assay); type: cell-based; conditions: MTT; for Survival Rate (%) / viability at 6.25 µM / viability at 12.5 µM / viability at 25 µM / viability at 50 µM: H9C2 cells; for IC50: normal H9C2 cells; for viability at 6.25 µM / viability at 12.5 µM / viability at 25 µM / viability at 50 µM: read-out: Survival Rate (%)
Experimental: To study cytotoxicity on normal cells, the cytotoxicity of compounds against normal H9C2 cells were tested.
as §1, §2
The inhibition rate was calculated in the following equation: % inhibition = 1 − (Sample group OD/Control group OD) × 100%(3)

H9C2 cells [2] = assay: Toxicity on normal H9C2 cells (MTT assay); type: cell-based; conditions: for Survival Rate (%): 100 µM; for viability at 100 µM: read-out: Survival Rate (%)

Compound	IC50 (H9C2 cells [1]) [µM]	viability at 3.125 µM (injured SH-SY5Y cells; Homo sapiens, 3.125 µM) [%]	viability at 6.25 µM (injured SH-SY5Y cells; Homo sapiens, 6.25 µM) [%]	viability at 12.5 µM (injured SH-SY5Y cells; Homo sapiens, 12.5 µM) [%]	viability at 25 µM (injured SH-SY5Y cells; Homo sapiens, 25 µM) [%]	viability at 50 µM (injured SH-SY5Y cells; Homo sapiens, 50 µM) [%]	EC50 (injured SH-SY5Y cells; Homo sapiens) [µM]	viability at 6.25 µM (H9C2 cells [1]; 6.25 µM) [%]	viability at 12.5 µM (H9C2 cells [1]; 12.5 µM) [%]	viability at 25 µM (H9C2 cells [1]; 25 µM) [%]	viability at 50 µM (H9C2 cells [1]; 50 µM) [%]	viability at 100 µM (H9C2 cells [2]) [%]	melting point [°C]	further results
1-tert-butyl 2-(5,7-dihydroxy-4-oxo-2-phenyl-chroman-6-yl) pyrrolidine-1,2-dicarboxylate [Compound 11]	95.2	–	–	–	–	–	–	–	–	–	–	–	–	Proliferation Rate (%) (injured SH-SY5Y cells; 3.125 µM): 47.94%; Proliferation Rate (%) (injured SH-SY5Y cells; 6.25 µM): 86.25%; Proliferation Rate (%) (injured SH-SY5Y cells; 12.5 µM): 78.16%; Proliferation Rate (%) (injured SH-SY5Y cells; 25 µM): 74.48%; Proliferation Rate (%) (injured SH-SY5Y cells; 50 µM): 64.80%; EC50 (injured SH-SY5Y cells): 5.82 µM; Survival Rate (%) (H9C2 cells [1]; 6.25 µM): 70.98%; Survival Rate (%) (H9C2 cells [1]; 12.5 µM): 67.32%; Survival Rate (%) (H9C2 cells [1]; 25 µM): 61.98%; Survival Rate (%) (H9C2 cells [1]; 50 µM): 60.67%; Survival Rate (%) (H9C2 cells [2]): 45.75%
5,6-dihydroxy-4-oxo-2-phenyl-chroman-7-yl 2-{[(tert-butoxy)carbonyl]amino}-3-methyl-pentanoate [Compound 10]	> 100	–	–	–	–	–	–	–	–	–	–	–	–	Proliferation Rate (%) (injured SH-SY5Y cells; 3.125 µM): 75.23%; Proliferation Rate (%) (injured SH-SY5Y cells; 6.25 µM): 77.21%; Proliferation Rate (%) (injured SH-SY5Y cells; 12.5 µM): 79.27%; Proliferation Rate (%) (injured SH-SY5Y cells; 25 µM): 74.55%; Proliferation Rate (%) (injured SH-SY5Y cells; 50 µM): 63.22%; EC50 (injured SH-SY5Y cells): 5.07 µM; Survival Rate (%) (H9C2 cells [1]; 6.25 µM): 194.73%; Survival Rate (%) (H9C2 cells [1]; 12.5 µM): 179.84%; Survival Rate (%) (H9C2 cells [1]; 25 µM): 169.33%; Survival Rate (%) (H9C2 cells [1]; 50 µM): 152.13%; Survival Rate (%) (H9C2 cells [2]): 141.70%
O=c1cc(-c2ccccc2)oc2cc(O)c(O)c(O)c12 [Baicalein, 5,6,7-trihydroxyflavone]	> 100	54.7	35.1	29.9	28.4	11.7	24.8	212	198	179	170	168	–	–
CC(C)C(NC(=O)OCc1ccccc1)C(=O)Oc1c(O)cc2oc(-c3ccccc3)cc(=O)c2c1O (stereo not shown) [Compound 1, 5,7-dihydroxy-4-oxo-2-phenyl-4H-chromen-6-yl 2-{[(benzyloxy)carbonyl]amino}-3-methylbutanoate]	> 100	56	84.3	81.8	67.3	54.9	6.07	270	260	231	216	204	199.7	–
CC(C)(C)C(NC(=O)OCc1ccccc1)C(=O)Oc1cc2oc(-c3ccccc3)cc(=O)c2c(O)c1OC(=O)C(NC(=O)OCc1ccccc1)C(C)(C)C (stereo not shown) [Compound 2]	> 100	45.1	48.2	81	107	94.2	4.79	213	150	133	112	108	195.8	–
CC(C)(C)C(NC(=O)OCc1ccccc1)C(=O)Oc1c(O)cc2oc(-c3ccccc3)cc(=O)c2c1O (stereo not shown) [Compound 3, 5,7-dihydroxy-4-oxo-2-phenyl-4H-chromen-6-yl 2-{[(benzyloxy)carbonyl]amino}-3,3-dimethylbutanoate]	> 100	15.3	14.8	8.1	0.15	-0.18	62.4	144	137	135	132	104	170.1	–
O=C(CC(NC(=O)OCc1ccccc1)C(=O)OCc1ccccc1)Oc1c(O)cc2oc(-c3ccccc3)cc(=O)c2c1O (stereo not shown) [Compound 4, 1-benzyl 5,7-dihydroxy-4-oxo-2-phenyl-4H-chromen-6-yl 2-{[(benzyloxy)carbonyl]amino} butanedioate]	> 100	59.1	94.1	77.7	70.2	54.8	5.51	156	140	140	131	126	157.8	–
CN(CC(=O)Oc1cc2oc(-c3ccccc3)cc(=O)c2c(O)c1O)C(=O)OC(C)(C)C [Compound 5, 5,6-dihydroxy-4-oxo-2-phenyl-4H-chromen-7-yl 2{[(tert-butoxy)carbonyl](methyl)amino}acetate]	> 100	28.4	37.6	76.4	78.1	60.7	9.96	116	116	105	95.1	76.9	218	–
CC(C)(C)OC(=O)NC(Cc1ccccc1)C(=O)Oc1c(O)cc2oc(-c3ccccc3)cc(=O)c2c1O (stereo not shown) [Compound 6, 5,7-dihydroxy-4-oxo-2-phenyl-4H-chromen-6-yl 2-{[(tert-butoxy)carbonyl]amino}-3-phenylpropanoate]	> 100	8.61	20	24.8	21.6	16.7	42	157	154	154	137	122	–	–
CCC(C)C(NC(=O)OCc1ccccc1)C(=O)Oc1cc2oc(-c3ccccc3)cc(=O)c2c(O)c1O (stereo not shown) [Compound 7, 5,6-dihydroxy-4-oxo-2-phenyl-4H-chromen-7-yl 2-{[(benzyloxy)carbonyl]amino}-3-methyl-pentanoate]	> 100	63.6	69.7	79.8	79.8	72.2	5.24	152	147	145	139	124	155.7	–
O=C(CC(NC(=O)OCc1ccccc1)C(=O)Oc1c(O)cc2oc(-c3ccccc3)cc(=O)c2c1O)OCc1ccccc1 (stereo not shown) [Compound 9, 1-benzyl 5,7-dihydroxy-4-oxo-2-phenyl-4H-chromen-6-yl 3-{[(benzyloxy)carbonyl]amino} butanedioate]	> 100	28.1	98.2	79.6	101	84.2	4.47	153	133	130	115	107	100.7	–
CC1=NN(c2ccccc2)C(=O)C1 [Edaravone, reference compound]	–	61.4	85.8	76.1	69.9	60.7	5.62	–	–	–	–	–	–	–
